Data taken from patent US10703751B2, “Amino-imidazopyridine derivatives as Janus kinase inhibitors and pharmaceutical use thereof” (LEO Pharma A/S, priority 2017, dated 2020).
Read-outs that look alike come from different tables or passages of the source.

Tests used:
STAT5 irfl-bla TF1 cells = assay: STAT5 assay (EPO stimulated reporter cells); assay type: cell-based; details: Homo sapiens, TF-1; erythropoietin (EPO) 10 ng/mL
Protocol: Twenty-five μL of a STAT5 irfl-bla TF1 (Invitrogen # K1219) cell suspension was seeded with a density of about 10,000 cells/well in 384-well Black View-plates (PerkinElmer #6007460) with clear bottom in assay medium (Opti-MEM (Invitrogen #11058-021)+0.5% heat inactivated fetal bovine Serum (Invitrogen #10082-147)+1% non-essential amino acids (Invitrogen #11140-050)+1% sodium pyruvate (Invitrogen #11360-070)+1% penicillin/streptomycin (Invitrogen #15140-122)). The cell plates were incubated overnight in a humidified 37° C. air/CO2 (95%/5%) incubator. The following day, 125 nL of solutions of test compounds and reference compounds were transferred to cell plates using the Labcyte Echo 550 liquid handler. The plates were then incubated for 1 h in a humidified 37° C. air/CO2 (95%/5%) incubator. Hereafter recombinant human erythropoietin (EPO) (Invitrogen # PHC9634) was added to the plates also using the Labcyte Echo 550 to a final concentration of 10 ng/mL. The cells were then incubated for 4½-5 h in a humidified 37° C. air/CO2 (95%/5%) incubator. 8 μL of LiveBLAzer substrate mixture (Invitrogen # K1095) were then added to the assay plates, which were then incubated overnight at RT. Fluorescence was then measured: Excitation: 405 nm; Emission: 460 nm (green channel), Emission: 535 nm (blue channel). Background was subtracted in both emission channels and the ratio 460/535 nm was calculated for each well.

STAT6 bla-RA1 cells = assay: STAT6 assay (IL-4 stimulated reporter cells); assay type: cell-based; details: for EC50: interleukin 4 10 ng/mL; for STAT5/STAT6 EC50 ratio (selectivity for STAT6 over STAT5): selectivity for STAT6 over STAT5, from EC50
Protocol: Twenty-five μL of a STAT6 bla-RA1 (Invitrogen # K1243) cell suspension was seeded with a density of 30-40,000 cells/well in 384-well Black View-plates (PerkinElmer #6007460) with clear bottom in assay medium (Opti-MEM (Invitrogen #11058-021)+0.5% heat inactivated fetal bovine Serum (Invitrogen #10082-147)+1% non-essential amino acids (Invitrogen #11140-050)+1% sodium pyruvate (Invitrogen #11360-070)+1% penicillin/streptomycin (Invitrogen #15140-122)); containing 550 ng/mL of CD40 ligand (Invitrogen # PHP0025). The cell plates were incubated overnight in a humidified 37° C. air/CO2 (95%/5%) incubator. The following day, 125 nL of solutions of test compounds and reference compounds were transferred to cell plates using the Labcyte Echo 550 liquid handler. The plates were then incubated for 1 h in a humidified 37° C. air/CO2 (95%/5%) incubator. Hereafter recombinant human interleukin 4 (Invitrogen # PHC0045) were added to the plates also using the Labcyte Echo 550 to a final concentration of 10 ng/mL. The cells were then incubated for 4½-5 h in a humidified 37° C. air/CO2 (95%/5%) incubator. 8 μL of LiveBLAzer substrate mixture (Invitrogen # K1095) were then added to the assay plates, which were incubated overnight at RT. Fluorescence was then measured: Excitation: 405 nm; Emission: 460 nm (green channel), Emission: 535 nm (blue channel). Background was subtracted in both emission channels and the ratio 460/535 nm was calculated for each well.

JAK2 = JAK2 (Homo sapiens (Human), UniProt O60674); assay: JAK2 kinase assay (HTRF); assay type: biochemical; details: ATP at Km (4 μM)
Protocol: (§1) Human baculovirus-expressed Janus kinase (JAK) 1, 2, 3 and tyrosin kinase (TYK) 2 were purchased from Carna Biosciences, Inc (#08-144, -045, -046, -147 resp.). All four purified enzymes contain only the catalytic domain. JAK1 (aa 850-1154) and TYK2 (aa 871-1187) are expressed with an N-terminally fused GST-tag, and JAK2 and JAK3 with an N-terminally fused His-tag. Inhibition of phosphorylation of a synthetic peptide was measured in an HTRF-based assay (CisBio #62TKOPEC). First, 75 nL of test compound solution (100% DMSO) was added to a white shallow 384-well plate (NUNC #264706) using a Labcyte ECHO 550 liquid handler. Thereafter, 1 μL of compound dilution buffer (50 mM HEPES, 0.05% bovine serum albumin) and 2 μL of TK solution (TK substrate-biotin in kinase buffer [1× enzymatic buffer from HTRFKinEASE TK kit, 1 mM DTT]) was added. Then, 5 μL kinase-ATP mix (prepared in kinase buffer) was added to the wells and the plates were incubated at RT for 20 (JAK2, 3 and TYK2) to 40 (JAK1) min. For all four kinases a concentration of ATP that corresponded to the Km for ATP was used. The final concentrations of buffers, substrate, kinase and ATP were: JAK1: 50 mM Hepes buffer pH 7.0, 0.01% BSA, 10 mM MgCl2, 1 mM DTT, 7 μM ATP, 50 nM SEB, 1 μM TK Substrate-Biotin and 5 ng/well JAK1; JAK2: 50 mM Hepes buffer pH 7.0, 0.01% BSA, 5 mM MgCl2, 1 mM DTT, 4 μM ATP, 1 μM TK Substrate-Biotin and 0.1 ng/well JAK2; JAK3: 50 mM Hepes buffer pH 7.0, 0.01% BSA, 5 mM MgCl2, 1 mM DTT, 2 μM ATP, 1 μM TK Substrate-Biotin and 0.3 ng/well JAK3; TYK2: 50 mM Hepes buffer pH 7.0, 0.01% BSA, 5 mM MgCl2, 1 mM DTT, 13 μM ATP, 50 nM SEB, 1 μM TK Substrate-Biotin and 0.8 ng/well TYK2. Thereafter, the kinase reaction was stopped by adding 4 μL detection mix (final concentrations: 50 mM Hepes buffer pH 7.0, 0.01% BSA, 0.8 M KF, 20 mM EDTA, 42 nM Streptavidin-XL665 and 1:400 STK Ab Cryptate) and the plates were incubated overnight in the dark. A PerkinElmer Envision reader was used to quantify the HTRF signal using the following filters; 320 nm excitation filter, 665 nm emission filter and a 615 nm 2nd emission filter. A ratio ((665/615)×10^4) was calculated for each well.

JAK3 = JAK3 (Homo sapiens (Human), UniProt P52333); assay: JAK3 kinase assay (HTRF); assay type: biochemical
Protocol: as §1

TYK2 = TYK2 (Homo sapiens (Human), UniProt P29597); assay: TYK2 kinase assay (HTRF); assay type: biochemical
Protocol: as §1

JAK1 = JAK1 (Homo sapiens (Human), UniProt P23458); assay: JAK1 kinase assay (HTRF); assay type: biochemical; details: for JAK2/JAK1 ratio / JAK3/JAK1 ratio: ratio of the respective EC50
Protocol: as §1

Chain of JAK3 (P52333 822-1111): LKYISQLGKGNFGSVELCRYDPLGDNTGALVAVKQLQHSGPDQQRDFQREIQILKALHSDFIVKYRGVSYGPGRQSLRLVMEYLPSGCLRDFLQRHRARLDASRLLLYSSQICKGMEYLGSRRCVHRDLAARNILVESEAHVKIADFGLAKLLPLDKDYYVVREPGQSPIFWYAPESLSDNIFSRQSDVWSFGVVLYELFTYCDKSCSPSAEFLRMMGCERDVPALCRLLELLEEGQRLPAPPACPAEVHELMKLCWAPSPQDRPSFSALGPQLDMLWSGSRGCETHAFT
Chain of TYK2 (P29597 871-1187): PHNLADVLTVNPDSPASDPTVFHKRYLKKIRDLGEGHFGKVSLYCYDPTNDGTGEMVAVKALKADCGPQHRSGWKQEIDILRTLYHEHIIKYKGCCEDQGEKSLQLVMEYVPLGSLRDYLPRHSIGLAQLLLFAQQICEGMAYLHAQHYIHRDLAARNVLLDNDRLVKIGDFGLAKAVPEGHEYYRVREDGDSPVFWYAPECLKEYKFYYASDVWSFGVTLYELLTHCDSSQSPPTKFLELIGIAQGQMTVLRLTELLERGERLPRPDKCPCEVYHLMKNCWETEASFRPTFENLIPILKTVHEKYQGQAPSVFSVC
Chain of JAK2 (O60674 849-1124): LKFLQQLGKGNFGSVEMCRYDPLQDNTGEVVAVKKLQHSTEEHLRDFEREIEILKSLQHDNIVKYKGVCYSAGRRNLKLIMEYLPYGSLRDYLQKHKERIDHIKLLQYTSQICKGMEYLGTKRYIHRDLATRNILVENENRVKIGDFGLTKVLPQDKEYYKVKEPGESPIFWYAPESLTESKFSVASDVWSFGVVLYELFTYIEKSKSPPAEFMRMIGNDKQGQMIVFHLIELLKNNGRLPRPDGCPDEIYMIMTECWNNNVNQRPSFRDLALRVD
Chain of JAK1 (P23458 850-1154): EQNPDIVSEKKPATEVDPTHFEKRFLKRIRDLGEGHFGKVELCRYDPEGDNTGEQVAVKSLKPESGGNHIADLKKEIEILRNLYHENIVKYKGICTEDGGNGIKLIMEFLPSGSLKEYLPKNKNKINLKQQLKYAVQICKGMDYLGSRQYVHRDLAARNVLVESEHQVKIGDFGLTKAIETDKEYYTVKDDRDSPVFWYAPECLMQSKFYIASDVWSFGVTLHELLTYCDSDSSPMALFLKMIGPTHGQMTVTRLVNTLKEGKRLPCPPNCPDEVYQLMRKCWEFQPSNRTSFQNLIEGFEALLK

Row | SMILES | EC50 (STAT5 irfl-bla TF1 cells) [µM] | EC50 (STAT6 bla-RA1 cells) [nM] | STAT5/STAT6 EC50 ratio (selectivity for STAT6 over STAT5) (STAT6 bla-RA1 cells) | EC50 (JAK2) [nM] | EC50 (JAK3; ATP at Km (2 μM)) [µM] | EC50 (TYK2; ATP at Km (13 μM)) [nM] | EC50 (JAK1; ATP at Km (7 μM)) [nM] | JAK2/JAK1 ratio (JAK1) | JAK3/JAK1 ratio (JAK1) | EC50 (JAK3) [µM] | EC50 (TYK2) [nM] | EC50 (JAK1) [nM]
1 | CNc1cc2c(cn1)nc(C(C)O)n2[C@H]1CC[C@H](CC#N)CC1 (stereo partly drawn) [Example 1, trans-2-[4-[2-[1-Hydroxyethyl]-6-(methylamino)imidazo[4,5-c]pyridin-1-yl]cyclohexyl]acetonitrile] | 14.6 | 237 | 62 | 530 | 5.26 | 111 | 10.8 | 49 | 487 | – | – | –
2 | CNc1cc2c(cn1)nc([C@H](C)O)n2[C@H]1CC[C@H](CC#N)CC1 [Example 2, trans-2-[4-[2-[(1S)-1-Hydroxyethyl]-6-(methylamino)imidazo[4,5-c]pyridin-1-yl]cyclo-hexyl]acetonitrile] | > 42.6 | 1160 | >37 | 1130 | – | – | – | 25 | 221 | 9.82 | 466 | 44.4
3 | [2H]C([2H])([2H])Nc1cc2c(cn1)nc([C@@H](C)O)n2[C@H]1CC[C@H](CC#N)CC1 [Example 4, trans-2-[4-[2-[(1R)-1-Hydroxyethyl]-6-(trideuteriomethylamino)imidazo[4,5-c]pyridin-1-yl]cyclohexyl]acetonitrile] | 7.08 | 141 | 50 | 153 | – | – | – | 44 | 668 | 2.31 | 43 | 3.46
4 | [2H]C([2H])([2H])C([2H])(O)c1nc2cnc(NC)cc2n1[C@H]1CC[C@H](CC#N)CC1 (stereo partly drawn) [Example 5, trans-2-[4-[2-[1,2,2,2-Tetradeuterio-1-hydroxyethyl]-6-(methylamino)imidazo[4,5-c]pyridin-1-yl]cyclohexyl]acetonitrile] | 9.24 | 270 | 34 | 301 | – | – | – | 36 | 380 | 3.2 | 102 | 8.41
5 | CNc1cc2c(cn1)nc(C(C)O)n2[C@H]1CC[C@@H](CC#N)CC1 (stereo partly drawn) [Example 6, cis-2-[4-[2-[1-Hydroxyethyl]-6-(methylamino)imidazo[4,5-c]pyridin-1-yl]cyclohexyl]acetonitrile] | > 49.8 | 8570 | >5.8 | 2640 | 2.87 | 1110 | 508 | 5.2 | 5.6 | – | – | –
6 | CNc1cc2c(cn1)nc([C@@H](C)O)n2[C@H]1CC[C@@H](CC#N)CC1 [Example 7, cis-2-[4-[2-[(1R)-1-Hydroxyethyl]-6-(methylamino)imidazo[4,5-c]pyridin-1-yl]cyclohexyl]acetonitrile] | > 49.8 | 3460 | >14 | 981 | 1.01 | 443 | 129 | 7.6 | 7.8 | – | – | –
